# Source: the NIST ThermoML archive (doi:10.1016/j.fluid.2010.08.010)
# ± gives the expanded uncertainty stated by the source.
# Conditions: 293.15 K; 101.33 kPa; Liquid; Pycnometric method
row,SMILES,mass density [kg/m3]
1,CN(C)C=O [dimethylformamide],948.7 ± 5.9
2,Clc1ccccc1 [chlorobenzene],1106 ± 6.3

# Same assay, conditions: 298.15 K; 101.33 kPa; Liquid; Pycnometric method
row,SMILES,mass density [kg/m3]
1,O=[N+]([O-])c1ccccc1 [nitrobenzene],1198 ± 6.5
2,CC#N [acetonitrile],776.5 ± 1.2
3,Nc1ccccc1 [aniline],1017.3 ± 6.1
4,C=CC#N [acrylonitrile],800.3 ± 5.7
5,"Cc1ccccc1C [1,2-dimethylbenzene]",875.9 ± 5.8
6,CCCCCCO [hexan-1-ol],815.3 ± 1.2
